Experimental data: patent US9216973B2, “Insecticidal compounds” (Syngenta Participations AG, priority 2008, dated 2015)
Like-named read-outs stand apart in the source and are kept apart here.

Legend:
[1] = test system: Plutella xylostella (Diamond back moth); experiment: Plutella xylostella larvae test on artificial diet; assay type: in vivo; conditions: 144 h, 200 ppm (concentration in well 18 ppm), artificial diet, L2 larvae, larval mortality and growth regulation after 6 days
Procedure: (§1) This Example illustrates the insecticidal and acaricidal properties of compounds of formula (I). The tests were performed as follows:
(§2) Cotton leaf discs were placed on agar in a 24-well microtiter plate and sprayed with test solutions at an application rate of 200 ppm. After drying, the leaf discs were infested with 5 L1 larvae. The samples were checked for mortality, feeding behavior, and growth regulation 3 days after treatment (DAT). The following compound gave at least 80% control of Spodoptera littoralis: A1, A2, A5, A6, A7, A8, A10, A11, A12, A13, A14, A15, A16, A17, A18, A19, A21, A22, A23, A24, A25, A30, A31, A32, A33, A34, A35, A39, A40, A41 A42, A43, A44, A45, A46, A47, A48, A49, A50, A51, A53, A54, A55, A59, A60, A61, A62. Heliothis virescens (Tobacco budworm): Eggs (0-24 h old) were placed in 24-well microtiter plate on artificial diet and treated with test solutions at an application rate of 200 ppm (concentration in well 18 ppm) by pipetting. After an incubation period of 4 days, samples were checked for egg mortality, larval mortality, and growth regulation. The following compound gave at least 80% control of Heliothis virescens: A1, A2, A3, A4, A5, A6, A7, A8, A10, A11, A12, A13, A14, A15, A16, A18, A19, A21, A22, A24, A25, A30, A31, A32, A33, A34, A35, A37, A38, A39, A40, A42, A43, A44, A45, A46, A47, A48, A49, A50, A51, A55, AA57, A58, A59, A60, A61, A62. Plutella xylostella (Diamond back moth): 24-well microtiter plate (MTP) with artificial diet was treated with test solutions at an application rate of 200 ppm (concentration in well 18 ppm) by pipetting. After drying, the MTP's were infested with L2 larvae (7-12 per well). After an incubation period of 6 days, samples were checked for larval mortality and growth regulation. The following compound gave at least 80% control of Plutella xylostella: A1, A2, A5, A6, A7, A8, A9, A10, A11, A12, A13, A14, A15, A16, A17, A18, A19, A20, A21, A22, A24, A25, A30, A31, A32, A33, A34, A35, A37, A38, A39, A40, A42, A43, A44, A45, A46, A47, A48, A49, A50, A51, A52, A53, A54, A55, A57, A58, A59, A60, A61, A62, B3. Diabrotica balteata (Corn root worm): A 24-well microtiter plate (MTP) with artificial diet was treated with test solutions at an application rate of 200 ppm (concentration in well 18 ppm) by pipetting. After drying, the MTP's were infested with L2 larvae (6-10 per well). After an incubation period of 5 days, samples were checked for larval mortality and growth regulation. The following compound gave at least 80% control of Diabrotica balteata: A1, A2, A5, A6, A7, A10, A11, A12, A13, A14, A15, A16, A17, A18, A19, A21, A22, A24, A25, A30, A31, A32, A33, A34, A35, A38, A39, A40, A42, A43, A44, A45, A46, A47, A48, A49, A50, A59, A60, A61, A62. Thrips tabaci (Onion thrips): Sunflower leaf discs were placed on agar in a 24-well microtiter plate and sprayed with test solutions at an application rate of 200 ppm. After drying, the leaf discs were infested with an […] population of mixed ages. After an incubation period of 7 days, samples were checked for mortality. The following compounds gave at least 80% control of Thrips tabaci: A1, A2, A5, A6, A7, A8, A10, A12, A13, A14, A15, A16, A17, A18, A19, A21, A24, A25, A30, A31, A32, A33, A34, A35, A39, A42, A43, A44, A45, A46, A47, A48, A49, A50, A51, A53, A54, A57, A58, A59, A60, A61, A62. Tetranychus urticae (Two-spotted spider mite): Bean leaf discs on agar in 24-well microtiter plates were sprayed with test solutions at an application rate of 200 ppm. After drying, the leaf discs are infested with mite populations of mixed ages. 8 days later, discs are checked for egg mortality, larval mortality, and adult mortality. The following compound gave at least 80% control of Tetranychus urticae: A1, A2, A4, A5, A6, A7, A8, A10, A11, A12, A13, A14, A15, A16, A17, A18, A19, A20, A21, A22, A30, A31, A32, A33, A34, A35, A39, A40, A41, A42, A43, A44, A45, A46, A47, A48, A49, A50, A51, A53, A54, A55, A57, A59, A60, A61, A62.

[2] = test system: Spodoptera littoralis (Egyptian cotton leafworm); experiment: Spodoptera littoralis cotton leaf disc spray test; assay type: in vivo; conditions: foliar, 72 h, 200 ppm spray on cotton leaf discs, L1 larvae, mortality, feeding behavior, growth regulation 3 days after treatment
Procedure: as §1
Spodoptera littoralis (Egyptian cotton leafworm):
as §2, with “The following compound gave at least 80% control of Tetranychus urticae: A1, A2, A4, A5, A6, A7, A8, A10, A11, A12, A13, A14, A15, A16, A17, A18, A19, A20, A21, A22, A30, A31, A32, A33, A34, A35, A39, A40, A41, A42, A43, A44, A45, A46, A47, A48, A49, A50, A51, A53, A54, A55, A57, A59, A60, A61, A62.” left out

[3] = test system: Heliothis virescens (Tobacco budworm); experiment: Heliothis virescens egg test on artificial diet; assay type: in vivo; conditions: 96 h, read-out: control of Heliothis virescens
Procedure: as §1, §2

[4] = test system: Thrips tabaci (Onion thrips); experiment: Thrips tabaci sunflower leaf disc spray test; assay type: in vivo; conditions: foliar, 168 h, 200 ppm spray on sunflower leaf discs, population of mixed ages, mortality after 7 days
Procedure: as §1, §2

[5] = test system: Tetranychus urticae (Two-spotted spider mite); experiment: Tetranychus urticae bean leaf disc spray test; assay type: in vivo; conditions: foliar, 192 h, read-out: control of Tetranychus urticae
Procedure: as §1, §2

[6] = test system: Diabrotica balteata (Corn root worm); experiment: Diabrotica balteata larvae test on artificial diet; assay type: in vivo; conditions: 120 h, 200 ppm (concentration in well 18 ppm), artificial diet, L2 larvae, larval mortality and growth regulation after 5 days
Procedure: as §1, §2

[7] = 200 ppm (concentration in well 18 ppm), eggs 0-24 h old on artificial diet, egg mortality, larval mortality, growth regulation after 4 days
[8] = 200 ppm spray on bean leaf discs, mite populations of mixed ages, egg, larval and adult mortality 8 days later

For `O=C(NC1CSC1)c1ccn(C2=NOC(c3cc(Cl)cc(Cl)c3)(C(F)(F)F)C2)n1` (centres unmarked) [B3], the pest or weed control at 200 ppm [1] was ≥ 80%.
For `Cc1cc(C2=NOC(c3cc(Cl)cc(Cl)c3)(C(F)(F)F)C2S(C)(=O)=O)ccc1C(=O)NC1CSC1` (centres unmarked) [A41], the pest or weed control at 200 ppm [2] was ≥ 80%.
For `O=C(NC1CSC1)c1ccc(C2=NOC(c3cc(Cl)cc(Cl)c3)(C(F)(F)F)C2)c2nsnc12` (centres unmarked) [A25], the pest or weed control at 200 ppm [1] was ≥ 80%.
In the case of `O=C(NC1C[S+]([O-])C1)c1ccc(C2=NOC(c3cc(Cl)cc(Cl)c3)(C(F)(F)F)C2)c2nsnc12` (centres unmarked) [A24], the pest or weed control at 200 ppm [1] is reported as ≥ 80%.
For `O=C(NC1CSC1)c1cnn(C2=NOC(c3cc(Cl)cc(Cl)c3)(C(F)(F)F)C2)c1` (centres unmarked) [B4], the melting point was 85 to 87 °C.
For `Cc1cc(C2=NOC(c3cc(Cl)cc(Cl)c3)(C(F)(F)F)/C2=N/O)ccc1C(=O)NC1C[S+]([O-])C1` (centres unmarked) [A57], the pest or weed control at 200 ppm [3, 7] was ≥ 80%, the pest or weed control at 200 ppm [1] was ≥ 80% and the pest or weed control at 200 ppm [4] was ≥ 80%. For the same compound, the pest or weed control at 200 ppm [5, 8] was ≥ 80%.
`Cc1c(C(=O)NC2CSC2)cnn1C1=NOC(c2cc(Cl)cc(Cl)c2)(C(F)(F)F)C1` (centres unmarked) [B2] showed a melting point of 77 °C.
With `Cc1cc(N2CC2(c2cc(Cl)cc(Cl)c2)C(F)(F)F)ccc1C(=O)NC1CSC1` (centres unmarked) [A4] the pest or weed control at 200 ppm [3] was ≥ 80% and the pest or weed control at 200 ppm [5] was ≥ 80%.
With `Cc1cc(C2=NOC(c3cc(Cl)cc(Cl)c3)(C(F)(F)F)C2O)ccc1C(=O)NC1(C)CSC1` (centres unmarked) [A52] the pest or weed control at 200 ppm [1] was ≥ 80%.
For `Cc1nn(C2=NOC(c3cc(Cl)cc(Cl)c3)(C(F)(F)F)C2)cc1C(=O)NC1CSC1` (centres unmarked) [B1], the melting point was 177 to 180 °C.
With `C/C=C1\C(c2ccc(C(=O)NC3CSC3)c(C)c2)=NOC1(c1cc(Cl)cc(Cl)c1)C(F)(F)F` (centres unmarked) [A30] the pest or weed control at 200 ppm [3, 7] was ≥ 80%, the pest or weed control at 200 ppm [1] was ≥ 80% and the pest or weed control at 200 ppm [6] was ≥ 80%.
In the case of `O=C(NC1CSC1)c1cccc2c(C3=NOC(c4cc(Cl)cc(Cl)c4)(C(F)(F)F)C3)cccc12` (centres unmarked) [A38], the pest or weed control at 200 ppm [3, 7] is reported as ≥ 80%, the pest or weed control at 200 ppm [1] is reported as ≥ 80% and the pest or weed control at 200 ppm [6] is reported as ≥ 80%.
In the case of `Cc1cc(N2CC2(c2cc(Cl)cc(Cl)c2)C(F)(F)F)ccc1C(=O)NC1(C)CSC1` (centres unmarked) [A3], the pest or weed control at 200 ppm [3] is reported as ≥ 80%.
For `Cc1cc(N2CC(c3cc(Cl)cc(Cl)c3)(C(F)(F)F)OC2=O)ccc1C(=O)NC1(C)CSC1` (centres unmarked) [A9], the pest or weed control at 200 ppm [1] was ≥ 80%.
In the case of `O=C(NC1C[S+]([O-])C1)c1cccc2c(C3=NOC(c4cc(Cl)cc(Cl)c4)(C(F)(F)F)C3)cccc12` (centres unmarked) [A37], the pest or weed control at 200 ppm [3, 7] is reported as ≥ 80% and the pest or weed control at 200 ppm [1] is reported as ≥ 80%.
In the case of `Cc1cc(C2CC(c3cc(Cl)cc(Cl)c3)(C(F)(F)F)ON2C)ccc1C(=O)NC1(C)CSC1` (centres unmarked) [A20], the pest or weed control at 200 ppm [1] is reported as ≥ 80% and the pest or weed control at 200 ppm [5, 8] is reported as ≥ 80%.
